Results published in patent US20250346569A1, “NEW DERIVATIVES FOR TREATING TRPM3 MEDIATED DISORDERS” (Katholieke Universiteit Leuven, priority 2022, published 2025).

Target: T1, mouse TRPM3α2 (mTRPM3) ion channel (Mus musculus, UniProt J9SQF3)
T1 construct: expressed in transfected cells; host or cells: flip-in HEK293
Assay: Monitoring the TRPM3 ion channel driven Ca2+ uptake (Fluo-4 AM assay)
Type: cell-based
Details: TRPM3 overexpressing flip-in HEK293 cells, channel stimulated with Pregnenolone sulfate (PS) 50 μM
Method: Monitoring the TRPM3 ion channel driven Ca^2+ uptake.
In order to monitor the inhibition of the mouse TRPM3α2 (mTRPM3) ion channel by the compounds of the invention, a cellular system making use of an mTRPM3alpha2 or hTRPM3 overexpressing cell line (flip-in HEK293) was used. The TRPM3 channel was stimulated/opened with Pregnenolone sulfate (PS) (50 μM) which results in Ca^2+ influx.
For mTRPM3, the intracellular Ca^2+ was measured with a Calcium responsive dye, Fluor-4 AM ester (Invitrogen). Cells were cultured until a confluence of 80-90%, washed with Versene (Invitrogen) and detached from the surface by a short incubation with 0.05% Trypsin (Invitrogen). The trypsination process was stopped by the addition of complete cell culture medium (DMEM, glutamax,10% FCS,NEAA,Pen-Strep). Cells were collected and resuspended in Krebs buffer without Calcium at RT.
Prior the cell seeding (±2000 cells/well into a black, 384 well plate (Greiner)) the diluted compound was added in the assay plate, together with the PS dissolved in Krebs buffer containing Calcium. […] Directly after cell addition the plates were read on an Envision fluorescence reader (Perkin Elmer) by an Excitation of 485 nm and emission at 535 nm.
Channel inhibition was calculated compared to a non-PS stimulated control versus a condition stimulated with PS (50 μM) with vehicle. The ability of the compounds of the invention to inhibit this activity was determined as: Percentage inhibition=[1−((RFU determined for sample with test compound present−RFU determined for sample with positive control inhibitor) divided by (RFU determined in the presence of vehicle−RFU determined for sample with positive control inhibitor))]*100.
The activities of the Example compounds tested are depicted in the table below. The activity ranges A, B and C refer to IC50 values in the Fluo-4 AM assay as follows: “A”: IC50<1 μM; “B”: 1 μM≤IC50≤20 μM and “C”: IC50>20 μM

T1 sequence (J9SQF3 1-1709 isoform J9SQF3-12): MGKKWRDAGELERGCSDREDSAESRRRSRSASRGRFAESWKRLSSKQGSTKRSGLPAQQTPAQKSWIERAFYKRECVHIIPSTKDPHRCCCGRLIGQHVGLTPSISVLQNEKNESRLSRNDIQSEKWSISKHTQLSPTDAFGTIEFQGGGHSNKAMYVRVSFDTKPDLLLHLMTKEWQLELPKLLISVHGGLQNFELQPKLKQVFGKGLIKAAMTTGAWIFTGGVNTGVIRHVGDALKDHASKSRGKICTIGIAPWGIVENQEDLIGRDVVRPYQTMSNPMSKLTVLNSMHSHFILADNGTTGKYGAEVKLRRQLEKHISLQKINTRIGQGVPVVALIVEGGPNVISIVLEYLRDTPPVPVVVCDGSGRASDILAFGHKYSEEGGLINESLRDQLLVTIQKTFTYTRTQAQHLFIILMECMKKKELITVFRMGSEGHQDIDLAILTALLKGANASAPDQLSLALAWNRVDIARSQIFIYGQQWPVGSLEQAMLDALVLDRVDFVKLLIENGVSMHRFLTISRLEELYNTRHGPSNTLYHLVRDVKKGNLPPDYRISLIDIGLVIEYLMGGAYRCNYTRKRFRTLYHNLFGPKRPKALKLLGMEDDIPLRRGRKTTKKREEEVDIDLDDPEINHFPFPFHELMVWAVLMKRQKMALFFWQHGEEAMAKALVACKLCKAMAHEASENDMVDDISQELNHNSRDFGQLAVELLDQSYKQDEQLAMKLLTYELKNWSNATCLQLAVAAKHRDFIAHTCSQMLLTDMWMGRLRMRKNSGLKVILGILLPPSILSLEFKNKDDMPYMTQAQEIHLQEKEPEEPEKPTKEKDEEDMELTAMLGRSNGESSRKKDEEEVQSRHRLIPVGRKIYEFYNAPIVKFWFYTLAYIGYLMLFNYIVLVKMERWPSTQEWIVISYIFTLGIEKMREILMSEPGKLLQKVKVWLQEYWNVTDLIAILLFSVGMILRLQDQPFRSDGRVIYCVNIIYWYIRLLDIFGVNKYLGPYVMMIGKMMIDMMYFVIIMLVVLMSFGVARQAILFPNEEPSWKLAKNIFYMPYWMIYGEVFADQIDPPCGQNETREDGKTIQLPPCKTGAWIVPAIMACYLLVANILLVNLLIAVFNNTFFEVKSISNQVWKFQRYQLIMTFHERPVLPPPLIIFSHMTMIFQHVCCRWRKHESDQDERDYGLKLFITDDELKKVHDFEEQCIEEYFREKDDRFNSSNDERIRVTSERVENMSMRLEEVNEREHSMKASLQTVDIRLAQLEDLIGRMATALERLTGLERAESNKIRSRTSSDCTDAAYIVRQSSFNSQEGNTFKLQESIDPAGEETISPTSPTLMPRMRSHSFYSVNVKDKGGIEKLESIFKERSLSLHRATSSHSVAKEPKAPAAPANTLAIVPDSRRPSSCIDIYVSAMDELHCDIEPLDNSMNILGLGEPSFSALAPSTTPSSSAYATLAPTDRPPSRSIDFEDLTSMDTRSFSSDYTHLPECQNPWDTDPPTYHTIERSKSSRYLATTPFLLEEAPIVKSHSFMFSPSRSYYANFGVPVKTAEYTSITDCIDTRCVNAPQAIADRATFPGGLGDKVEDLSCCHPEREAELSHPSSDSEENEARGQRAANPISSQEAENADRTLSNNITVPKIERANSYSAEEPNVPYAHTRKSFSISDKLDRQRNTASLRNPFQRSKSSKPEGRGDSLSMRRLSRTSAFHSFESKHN

SMILES: Cc1ncc(COc2ccc3sc(C)c(C(=O)N[C@@H](CO)C(N)=O)c3c2)s1 [Cpd 016, (2S)-3-hydroxy-2-({2-methyl-5-[(2-methyl-1,3-thiazol-5-yl)methoxy]-1-benzothiophen-3-yl}formamido)propanamide]
- IC50: < 1000 nM

SMILES: Cc1ncc(COc2ccc3sc(C)c(C(=O)N[C@H](CO)C(N)=O)c3c2)s1 [Cpd 017, (2R)-3-hydroxy-2-({2-methyl-5-[(2-methyl-1,3-thiazol-5-yl)methoxy]-1-benzothiophen-3-yl}formamido)propanamide]
- IC50: < 1000 nM

SMILES: Cc1ncc(COc2ccc3sc(C)c(C(=O)NC(C)(C)C(N)=O)c3c2)s1 [Cpd 018, 2-methyl-2-({2-methyl-5-[(2-methyl-1,3-thiazol-5-yl)methoxy]-1-benzothiophen-3-yl}formamido)propanamide]
- IC50: < 1000 nM

SMILES: Cc1ncc(COc2ccc3sc(C)c(C(=O)NC4(C(N)=O)CCOC4)c3c2)s1 (centres unmarked) [Cpd 020, 3-{2-methyl-5-[(2-methyl-1,3-thiazol-5-yl)methoxy]-1-benzothiophene-3-amido}oxolane-3-carboxamide]
- IC50: < 1000 nM

SMILES: Cc1ncc(COc2ccc3sc(C)c(C(=O)NC4(C(N)=O)CCOCC4)c3c2)s1 [Cpd 021, 4-{2-methyl-5-[(2-methyl-1,3-thiazol-5-yl)methoxy]-1-benzothiophene-3-amido}oxane-4-carboxamide]
- IC50: < 1000 nM

SMILES: Cc1ncc(COc2ccc3sc(C)c(C(=O)NC4(CO)CC4)c3c2)s1 [Cpd 022, N-[1-(hydroxymethyl)cyclopropyl]-2-methyl-5-[(2-methyl-1,3-thiazol-5-yl)methoxy]-1-benzothiophene-3-carboxamide]
- IC50: 1000 to 20000 nM

SMILES: Cc1ncc(COc2ccc3sc(C)c(C(=O)NC4(CO)CCC4)c3c2)s1 [Cpd 023, N-[1-(hydroxymethyl)cyclobutyl]-2-methyl-5-[(2-methyl-1,3-thiazol-5-yl)methoxy]-1-benzothiophene-3-carboxamide]
- IC50: < 1000 nM

SMILES: Cc1ncc(COc2ccc3sc(C)c(C(=O)NC4(CO)CCOCC4)c3c2)s1 [Cpd 024, N-[4-(hydroxymethyl)oxan-4-yl]-2-methyl-5-[(2-methyl-1,3-thiazol-5-yl)methoxy]-1-benzothiophene-3-carboxamide]
- IC50: 1000 to 20000 nM

SMILES: Cc1ncc(COc2ccc3sc(C)c(C(=O)NC4(CO)COC4)c3c2)s1 [Cpd 025, N-[3-(hydroxymethyl)oxetan-3-yl]-2-methyl-5-[(2-methyl-1,3-thiazol-5-yl)methoxy]-1-benzothiophene-3-carboxamide]
- IC50: < 1000 nM

SMILES: Cc1ncc(COc2ccc3sc(C)c(C(=O)NC4(C(N)=O)COC4)c3c2)s1 [Cpd 026, 3-{2-methyl-5-[(2-methyl-1,3-thiazol-5-yl)methoxy]-1-benzothiophene-3-amido}oxetane-3-carboxamide]
- IC50: < 1000 nM

SMILES: Cc1ncsc1COc1ccc2sc(C)c(C(=O)N[C@@H](CO)C(N)=O)c2c1 [Cpd 027, (2S)-3-hydroxy-2-({2-methyl-5-[(4-methyl-1,3-thiazol-5-yl)methoxy]-1-benzothiophen-3-yl}formamido)propanamide]
- IC50: < 1000 nM

SMILES: Cc1ncsc1COc1ccc2sc(C)c(C(=O)N[C@@H]3CCN(CCO)C3=O)c2c1 [Cpd 028, N-[(3R)-1-(2-hydroxyethyl)-2-oxopyrrolidin-3-yl]-2-methyl-5-[(4-methyl-1,3-thiazol-5-yl)methoxy]-1-benzothiophene-3-carboxamide]
- IC50: 1000 to 20000 nM

SMILES: Cc1ncsc1COc1ccc2sc(C)c(C(=O)N[C@H](CO)C(N)=O)c2c1 [Cpd 029, (2R)-3-hydroxy-2-({2-methyl-5-[(4-methyl-1,3-thiazol-5-yl)methoxy]-1-benzothiophen-3-yl}formamido)propanamide]
- IC50: < 1000 nM

SMILES: Cc1ncsc1COc1ccc2sc(C)c(C(=O)N[C@H]3CCN(CCO)C3=O)c2c1 [Cpd 030, N-[(3S)-1-(2-hydroxyethyl)-2-oxopyrrolidin-3-yl]-2-methyl-5-[(4-methyl-1,3-thiazol-5-yl)methoxy]-1-benzothiophene-3-carboxamide]
- IC50: < 1000 nM

SMILES: Cc1ncsc1COc1ccc2sc(C)c(C(=O)NC(C)(C)C(N)=O)c2c1 [Cpd 031, 2-methyl-2-({2-methyl-5-[(4-methyl-1,3-thiazol-5-yl)methoxy]-1-benzothiophen-3-yl}formamido)propanamide]
- IC50: < 1000 nM

SMILES: Cc1ncsc1COc1ccc2sc(C)c(C(=O)NC(C)(CO)CO)c2c1 [Cpd 032, N-(1,3-dihydroxy-2-methylpropan-2-yl)-2-methyl-5-[(4-methyl-1,3-thiazol-5-yl)methoxy]-1-benzothiophene-3-carboxamide]
- IC50: < 1000 nM

SMILES: Cc1ncsc1COc1ccc2sc(C)c(C(=O)NC3(C(N)=O)CCOCC3)c2c1 [Cpd 033, 4-{2-methyl-5-[(4-methyl-1,3-thiazol-5-yl)methoxy]-1-benzothiophene-3-amido}oxane-4-carboxamide]
- IC50: < 1000 nM

SMILES: Cc1ncsc1COc1ccc2sc(C)c(C(=O)NC3(CO)CC3)c2c1 [Cpd 034, N-[1-(hydroxymethyl)cyclopropyl]-2-methyl-5-[(4-methyl-1,3-thiazol-5-yl)methoxy]-1-benzothiophene-3-carboxamide]
- IC50: < 1000 nM

SMILES: Cc1ncsc1COc1ccc2sc(C)c(C(=O)NC3(CO)CCC3)c2c1 [Cpd 035, N-[1-(hydroxymethyl)cyclobutyl]-2-methyl-5-[(4-methyl-1,3-thiazol-5-yl)methoxy]-1-benzothiophene-3-carboxamide]
- IC50: < 1000 nM

SMILES: Cc1ncsc1COc1ccc2sc(C)c(C(=O)NC3(CO)CCOCC3)c2c1 [Cpd 036, N-[4-(hydroxymethyl)oxan-4-yl]-2-methyl-5-[(4-methyl-1,3-thiazol-5-yl)methoxy]-1-benzothiophene-3-carboxamide]
- IC50: < 1000 nM

SMILES: Cc1ncsc1COc1ccc2sc(C)c(C(=O)NC3(CO)COC3)c2c1 [Cpd 037, N-[3-(hydroxymethyl)oxetan-3-yl]-2-methyl-5-[(4-methyl-1,3-thiazol-5-yl)methoxy]-1-benzothiophene-3-carboxamide]
- IC50: < 1000 nM

SMILES: Cc1ncsc1COc1ccc2sc(C)c(C(=O)NC3(C(N)=O)COC3)c2c1 [Cpd 038, 3-{2-methyl-5-[(4-methyl-1,3-thiazol-5-yl)methoxy]-1-benzothiophene-3-amido}oxetane-3-carboxamide]
- IC50: < 1000 nM

SMILES: Cc1ncsc1COc1ccc2sc(C)c(C(=O)NC3CC(F)(F)C3)c2c1 [Cpd 039, N-(3,3-difluorocyclobutyl)-2-methyl-5-[(4-methyl-1,3-thiazol-5-yl)methoxy]-1-benzothiophene-3-carboxamide]
- IC50: < 1000 nM

SMILES: Cc1ncsc1COc1ccc2sc(C)c(C(=O)Nc3ccn(C)n3)c2c1 [Cpd 040, 2-methyl-5-[(4-methyl-1,3-thiazol-5-yl)methoxy]-N-(1-methyl-1H-pyrazol-3-yl)-1-benzothiophene-3-carboxamide]
- IC50: < 1000 nM

SMILES: Cc1ncsc1COc1ccc2sc(C)c(C(=O)NC3CCNC3=O)c2c1 (centres unmarked) [Cpd 041, 2-methyl-5-[(4-methyl-1,3-thiazol-5-yl)methoxy]-N-(2-oxopyrrolidin-3-yl)-1-benzothiophene-3-carboxamide]
- IC50: < 1000 nM

SMILES: Cc1ncsc1COc1ccc2sc(C)c(C(=O)NC3CCOC3)c2c1 (centres unmarked) [Cpd 043, 2-methyl-5-[(4-methyl-1,3-thiazol-5-yl)methoxy]-N-(oxolan-3-yl)-1-benzothiophene-3-carboxamide]
- IC50: < 1000 nM

SMILES: Cc1ncsc1COc1ccc2sc(C)c(C(=O)NCC(C)(C)N3CCOCC3)c2c1 [Cpd 044, 2-methyl-5-[(4-methyl-1,3-thiazol-5-yl)methoxy]-N-[2-methyl-2-(morpholin-4-yl)propyl]-1-benzothiophene-3-carboxamide]
- IC50: < 1000 nM

SMILES: Cc1ncsc1COc1ccc2sc(C)c(C(=O)NCC(C)(C)O)c2c1 [Cpd 045, N-(2-hydroxy-2-methylpropyl)-2-methyl-5-[(4-methyl-1,3-thiazol-5-yl)methoxy]-1-benzothiophene-3-carboxamide]
- IC50: < 1000 nM

SMILES: Cc1ncsc1COc1ccc2sc(C)c(C(=O)NCC3CCC(=O)N3)c2c1 (centres unmarked) [Cpd 046, 2-methyl-5-[(4-methyl-1,3-thiazol-5-yl)methoxy]-N-[(5-oxopyrrolidin-2-yl)methyl]-1-benzothiophene-3-carboxamide]
- IC50: < 1000 nM

SMILES: Cc1ncsc1COc1ccc2sc(C)c(C(=O)NCc3cccc(O)n3)c2c1 [Cpd 047, N-[(6-hydroxypyridin-2-yl)methyl]-2-methyl-5-[(4-methyl-1,3-thiazol-5-yl)methoxy]-1-benzothiophene-3-carboxamide]
- IC50: < 1000 nM

SMILES: Cc1ncsc1COc1ccc2sc(C)c(C(=O)NCCN3CCOC3=O)c2c1 [Cpd 048, 2-methyl-5-[(4-methyl-1,3-thiazol-5-yl)methoxy]-N-[2-(2-oxo-1,3-oxazolidin-3-yl)ethyl]-1-benzothiophene-3-carboxamide]
- IC50: 1000 to 20000 nM

SMILES: Cc1ncsc1COc1ccc2sc(C)c(C(=O)O)c2c1 [Cpd 049, 2-methyl-5-[(4-methyl-1,3-thiazol-5-yl)methoxy]-1-benzothiophene-3-carboxylic acid]
- IC50: 1000 to 20000 nM
